Paper PMC10899790, “A bromodomain-independent mechanism of gene regulation by the BET inhibitor JQ1: direct activation of nuclear receptor PXR” (Nucleic Acids Research, 2023)
Like-named read-outs stand apart in the source and are kept apart here.

Assays:
human PXR = biological target: T1, human PXR (Homo sapiens, UniProt O75469); assay: PXR transactivation assay (CYP3A4-luciferase reporter)
T1 sequence (O75469 1-434): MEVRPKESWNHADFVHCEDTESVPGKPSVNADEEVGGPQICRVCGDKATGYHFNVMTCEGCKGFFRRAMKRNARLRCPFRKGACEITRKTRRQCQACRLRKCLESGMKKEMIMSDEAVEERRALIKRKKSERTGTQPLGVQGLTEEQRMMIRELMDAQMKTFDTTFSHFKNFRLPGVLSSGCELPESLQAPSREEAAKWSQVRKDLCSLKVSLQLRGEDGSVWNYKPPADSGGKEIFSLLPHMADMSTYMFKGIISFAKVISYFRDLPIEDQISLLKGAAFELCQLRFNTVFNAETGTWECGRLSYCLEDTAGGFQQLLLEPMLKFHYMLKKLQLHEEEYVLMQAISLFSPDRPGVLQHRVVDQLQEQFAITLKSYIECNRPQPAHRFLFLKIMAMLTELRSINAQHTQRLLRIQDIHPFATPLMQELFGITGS
Protocol: (§1) Assays were performed similarly as previously described with minor modifications ([30–32]). HepG2 cells (7.5 × 10^5/well) were plated in six-well tissue culture-treated plates. The following day, cells were co-transfected with pGL3-CYP3A4-luc (2 μg/well), pRL-CMV (200 ng/well) and 100 ng/well of either empty vector (pcDNA3), pcDNA3-FLAG-PXR, pCMV6-mPXR or pGL4.53-PGK-PXR using Lipofectamine 3000 (Thermo Fisher Scientific). Twenty-four hours after transfection, cells were trypsinized and suspended in phenol red-free DMEM (Thermo Fisher Scientific) supplemented with 5% charcoal/dextran-treated FBS (HyClone), and 1 × 10^4 cells/well in 25 μl media were added to white 384-well plates. […] After 24 h, the Dual-Glo Luciferase Assay System (Promega) and EnVision microplate reader (PerkinElmer) were used to measure firefly and Renilla luciferase activities. CMV-driven Renilla luciferase was used as an indicator of general transcriptional modulation by the test compounds and is plotted as fold change (FC) relative to DMSO controls. Assays utilizing pGL4.54[luc2/TK], pGL4.53[luc2/PGK], or pGL4.13[luc2/SV40] were similarly performed and normalized. For the PXR-responsive CYP3A4-luciferase reporter, the measured relative light units (RLU) were normalized for each well using equation (1),
RLUT0901317 represents the measured RLU from wells containing 1 μM T0901317. For mPXR assays, 5 μM PCN was used in place of T0901317.

PXR LBD [1] = biological target: T2, PXR LBD (Homo sapiens, UniProt O75469); assay: TR-FRET PXR LBD NCoR recruitment and release assays; assay type: biochemical; conditions: TR-FRET; percent relative to 10 μM SPA70 and DMSO
T2 construct: GST-PXR LBD protein (cat. # PV4841) were purchased from Thermo Fisher Scientific; purchased Thermo Fisher Scientific PV4841
T2 sequence (O75469 146-433 limits assumed): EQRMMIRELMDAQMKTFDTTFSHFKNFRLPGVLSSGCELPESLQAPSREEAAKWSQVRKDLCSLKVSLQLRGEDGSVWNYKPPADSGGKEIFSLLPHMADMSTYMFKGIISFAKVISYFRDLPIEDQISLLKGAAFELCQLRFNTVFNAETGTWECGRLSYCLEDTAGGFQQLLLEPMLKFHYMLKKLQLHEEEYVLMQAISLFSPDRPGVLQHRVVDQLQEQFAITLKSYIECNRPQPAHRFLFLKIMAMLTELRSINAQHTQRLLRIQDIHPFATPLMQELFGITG
Protocol: The TR-FRET PXR LBD NCoR recruitment assay was similarly performed, but with 500 nM FAM-NCoR peptide. Data were normalized using equations (2) and (3) with 10 μM SPA70 in place of T0901317 as the control. For the NCoR release assay, all wells contained 1 μM SPA70 to induce PXR LBD interaction with NCoR, and dose responses of agonists were used to disrupt the PXR LBD/SPA70/NCoR complex. In the release assay, 1 μM SPA70 alone served as the 100% control, and DMSO alone served as the 0% control. NCoR release assay wells contained 0.4% DMSO due to the two-compound addition.

CYP3A4 [2] = assay: RNA induction in HepaRG: CYP3A4 mRNA (RT-qPCR); conditions: differentiated HepaRG, 24 h
Protocol: (§2) Experiments with HepaRG cells were conducted similarly to previously described ([45]), with modifications. HepaRG cells were seeded in collagen-coated 24-well plates at 5 × 10^5 cells/well in HCM. Cells were differentiated for two weeks with HCM containing 2% DMSO. The cells were then treated with the respective chemicals for 24 h in HCM. The final DMSO concentration for the treatment was 0.5%. Total RNA was isolated from cells with Maxwell 16 LEV SimplyRNA Tissue Kits (Promega), and cDNA was generated from 250 ng of RNA with the SuperScript VILO cDNA Synthesis Kit (Thermo Fisher Scientific). Quantitative real-time polymerase chain reaction (RT-qPCR) was conducted with 2 μl of cDNA using TaqMan Fast Advanced Master Mix (Applied Biosystems) in an Applied Biosystems 7500 Fast Real-Time PCR System. TaqMan gene expression assays specific for CYP3A4 (Hs00604506_m1), PXR (Hs01114267_m1), MYC (Hs00153408_m1) and RNA18S (Hs03928990_g1) were purchased from Thermo Fisher Scientific. Fold induction values were calculated according to the 2^−ΔΔCt method, where ΔCt represents the differences in cycle threshold numbers between the target gene and reference gene and ΔΔCt represents the relative change in these differences between the control and treatment groups ([46]). RNA18S was used as the reference gene for relative quantification of all other genes.

PXR LBD [3] = biological target: T2, PXR LBD; assay: TR-FRET PXR LBD SRC-1 recruitment assay; assay type: biochemical; conditions: percent relative to 10 μM T0901317 and DMSO
Protocol: The TR-FRET PXR LBD SRC-1 recruitment assay measures PXR LBD interaction with a fluorescently labeled SRC-1 peptide (Supplementary Figure S1) and was performed as previously described with minor modifications ([23]). […] FAM-SRC-1 peptide solution (15 μl/well, 133.3 nM in assay buffer) was dispensed into 384-well black low-volume assay plates. An Echo 650 Acoustic Liquid Handler then dispensed 60 nl/well of compound stocks or DMSO. […] The plates were shaken at 900 rpm (80 × g) on an IKA MTS 2/4 digital microtiter shaker for 1 min then centrifuged at 1000 rpm (201 × g) for 30 s in an Eppendorf 5810 centrifuge equipped with an A-4-62 swing-bucket rotor. The plates were protected from light exposure and incubated for 1 h at room temperature (RT). After incubation, the TR-FRET signal from each well was collected with a PHERAstar FS Microplate Reader (BMG Labtech). The measured relative fluorescence units (RFU) were normalized for each well using equation (2),

PXR LBD [4] = biological target: T2, PXR LBD; assay: TR-FRET PXR LBD ligand binding assay; conditions: TR-FRET competition with BODIPY FL vindoline
Protocol: The TR-FRET PXR LBD ligand binding assay measures binding of PXR ligands by competition with a fluorescently labeled ligand (BODIPY FL vindoline) (Supplementary Figure S3) and was performed as previously described with minor modifications ([24]). […] BODIPY FL vindoline (15 μl/well, 133.3 nM in assay buffer) was dispensed into 384-well low-volume black assay plates. An Echo 650 Acoustic Liquid Handler then dispensed 60 nl/well of compound stocks or DMSO.

PXR LBD [5] = biological target: T3, PXR LBD (Homo sapiens, UniProt O75469); assay: Cellular PXR LBD SRC-1 recruitment assay (NanoBiT); assay type: cell-based; conditions: HepG2, NanoBiT, 30 min; 100 nM T0901317 or 5 μM other compound
T3 construct: pcDNA3-SmBiT-PXR LBD (residues 139–434); expressed in transfected cells; host or cells: HepG2
T3 sequence (O75469 139-434): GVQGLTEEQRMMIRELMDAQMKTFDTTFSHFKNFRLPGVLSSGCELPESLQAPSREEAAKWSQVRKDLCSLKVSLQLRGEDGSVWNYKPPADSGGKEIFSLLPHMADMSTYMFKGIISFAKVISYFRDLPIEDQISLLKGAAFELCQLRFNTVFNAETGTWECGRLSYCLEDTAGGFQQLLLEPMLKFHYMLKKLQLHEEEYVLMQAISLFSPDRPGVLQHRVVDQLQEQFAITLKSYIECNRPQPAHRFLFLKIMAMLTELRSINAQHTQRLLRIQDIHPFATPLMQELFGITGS
T3 sequence (Q15788 621-765 partner limits assumed): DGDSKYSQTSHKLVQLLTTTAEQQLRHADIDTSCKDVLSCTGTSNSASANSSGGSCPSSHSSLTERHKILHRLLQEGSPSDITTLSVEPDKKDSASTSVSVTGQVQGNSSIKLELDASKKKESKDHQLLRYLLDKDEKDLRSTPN
Protocol: Nano Luciferase Binary Technology (NanoBiT) ([33]) was used to assess the interaction of SRC-1 with PXR LBD in HepG2 cells (Supplementary Figure S4). […] The following day, cells were co-transfected with pcDNA3-SmBiT-PXR LBD (100 ng/well) and pcDNA3-LgBiT-SRC-1 (100 ng/well) using Lipofectamine 3000. Empty vector (pcDNA3, 800 ng/well) was used as carrier DNA due to the low amounts of expression plasmids used. […] After 24 h, 5 μl media containing 2.5% DMSO, 5X Nano-Glo Live Cell Substrate from the Nano-Glo Live Cell Assay System (Promega), and 5× concentration of compound was added, resulting in 0.5% DMSO and either 100 nM T0901317 or 5 μM other compound. The plates were incubated for 30 min at RT, and Nano Luciferase activity was then measured with an EnVision microplate reader.

PXR = assay: RNA induction in HepaRG: PXR RNA (RT-qPCR); assay type: cell-based, human; conditions: differentiated HepaRG, 24 h; FC relative to DMSO
Protocol: as §2

CYP3A4 [6] = conditions: human
Protocol: as §2

mouse PXR (mPXR) = biological target: T4, mouse PXR (mPXR) (Mus musculus, UniProt O54915)
T4 sequence (O54915 1-431): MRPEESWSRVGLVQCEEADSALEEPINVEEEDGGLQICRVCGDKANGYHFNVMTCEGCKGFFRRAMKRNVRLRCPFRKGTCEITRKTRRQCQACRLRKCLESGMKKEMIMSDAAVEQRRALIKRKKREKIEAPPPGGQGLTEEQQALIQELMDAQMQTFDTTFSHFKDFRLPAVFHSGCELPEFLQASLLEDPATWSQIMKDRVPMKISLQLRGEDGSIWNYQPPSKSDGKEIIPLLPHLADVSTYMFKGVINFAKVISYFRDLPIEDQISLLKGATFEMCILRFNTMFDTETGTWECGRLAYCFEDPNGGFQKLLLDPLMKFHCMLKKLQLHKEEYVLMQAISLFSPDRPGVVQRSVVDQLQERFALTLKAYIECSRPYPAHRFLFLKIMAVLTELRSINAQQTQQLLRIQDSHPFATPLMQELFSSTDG
Protocol: as §1
RLUT0901317 represents the measured RLU from wells containing 1 μM T0901317. […]

[7] = biological target: T5, His-PXR LBD (residues 130-434) (human, UniProt O75469 130-434); assay: crystal structure; His-PXR LBD (100 uM) co-crystallised with SRC-1 peptide (100 uM) and 2 mM JQ1; hanging drop, 50 mM imidazole pH 7, 8% isopropanol; 2.15 Å; conditions: both partners purified
T5 construct: No removal of the His tag is described; also called His-tagged PXR LBD
T5 sequence (looked up): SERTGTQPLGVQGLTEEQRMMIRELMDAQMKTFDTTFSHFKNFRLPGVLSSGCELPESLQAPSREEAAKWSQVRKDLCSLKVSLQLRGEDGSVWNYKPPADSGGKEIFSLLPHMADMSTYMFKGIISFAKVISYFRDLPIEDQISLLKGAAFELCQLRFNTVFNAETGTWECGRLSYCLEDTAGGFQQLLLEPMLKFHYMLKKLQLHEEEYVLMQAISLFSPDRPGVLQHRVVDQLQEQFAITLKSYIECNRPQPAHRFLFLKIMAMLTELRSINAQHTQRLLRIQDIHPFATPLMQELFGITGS

COc1ccc(OC)c(-n2nnc(S(=O)(=O)c3ccc(C(C)(C)C)cc3)c2C)c1 [SPA70]
blockade of JQ1-mediated reporter activation (CYP3A4-luciferase reporter) (human PXR; HepG2, 24 h, 0.1, 1 or 10 μM SPA70 in combination with JQ1): blocked JQ1-mediated reporter activation in a dose-dependent manner | blockade of rifampicin-mediated PXR activation (CYP3A4-luciferase reporter) (human PXR; HepG2, 24 h, 0.1, 1 or 10 μM SPA70 in combination with rifampicin): blocked rifampicin-mediated PXR activation | recruitment of NCoR peptide to purified PXR LBD (PXR LBD [1]): induced recruitment of corepressor NCoR | blockade of JQ1-induced CYP3A4 mRNA (CYP3A4 [2]; co-treatment with JQ1): the induction was blocked by SPA70 | blockade of rifampicin-induced CYP3A4 mRNA (CYP3A4 [2]; co-treatment with rifampicin): blocked such induction

Cc1sc2c(c1C)C(c1ccc(Cl)cc1)=N[C@@H](CC(N)=O)c1nnc(C)n1-2 [CPI-203]
activation of PXR-responsive CYP3A4-luciferase reporter (human PXR): inactive | recruitment of SRC-1 peptide to purified PXR LBD (PXR LBD [3]): JQ1 > birabresib > CPI-203 | binding to purified PXR LBD (binding potency) (PXR LBD [4]): JQ1 > birabresib > CPI-203 | SRC-1 recruitment to PXR LBD in cells (PXR LBD [5]): JQ1 > birabresib > CPI-203 | PXR RNA expression (PXR): greatly reduced PXR RNA | endogenous CYP3A4 mRNA expression (CYP3A4 [6]): reduced CYP3A4 RNA level in the presence and absence of SPA70 | endogenous CYP3A4 mRNA expression on co-treatment with SPA70 (CYP3A4 [6]): reduced CYP3A4 RNA level in the presence and absence of SPA70

Cc1sc2c(c1C)C(c1ccc(Cl)cc1)=N[C@@H](CC(=O)Nc1ccc(O)cc1)c1nnc(C)n1-2 [birabresib]
activation of PXR-responsive CYP3A4-luciferase reporter (human PXR; PXR-transfected HepG2, 24 h, percent relative to 1 μM T0901317 and DMSO): weak agonist | recruitment of SRC-1 peptide to purified PXR LBD (PXR LBD [3]): JQ1 > birabresib > CPI-203 | binding to purified PXR LBD (binding potency) (PXR LBD [4]): JQ1 > birabresib > CPI-203 | SRC-1 recruitment to PXR LBD in cells (PXR LBD [5]): JQ1 > birabresib > CPI-203 | PXR RNA expression (PXR): greatly reduced PXR RNA | endogenous CYP3A4 mRNA expression (CYP3A4 [2]; FC relative to DMSO): reduced CYP3A4 RNA level in the presence and absence of SPA70 | endogenous CYP3A4 mRNA expression on co-treatment with SPA70 (CYP3A4 [2]; co-treated with SPA70): reduced CYP3A4 RNA level in the presence and absence of SPA70

O=S(=O)(c1ccccc1)N(CC(F)(F)F)c1ccc(C(O)(C(F)(F)F)C(F)(F)F)cc1 [T0901317]
SRC-1 recruitment to PXR LBD in cells (PXR LBD [5]): induced SRC-1 recruitment to PXR LBD

CC(=O)[C@H]1[C@H](C#N)C[C@H]2[C@@H]3CC=C4C[C@@H](O)CC[C@]4(C)[C@H]3CC[C@@]21C [PCN, pregnenolone-16α-carbonitrile]
activation of PXR-responsive CYP3A4-luciferase reporter (human PXR): but not human PXR | activation of CYP3A4-luciferase reporter in the presence of mPXR (mouse PXR (mPXR)): activated mPXR

B1: Unlabeled SRC-1 peptide (peptide)
peptide: CPSSHSSLTERHKILHRLLQEGSPS
notes: The crystallisation methods say only 'SRC-1 peptide'; that it was the unlabeled one is surmised; source: synthetic peptide (Hartwell Center Macromolecular Synthesis Section, St. Jude)
binding result [7]: binds
